Results published in ChEMBL document CHEMBL5620390, “A novel multifunctional mitochondrion-targeting NIR fluorophore probe inhibits tumour proliferation and metastasis through the PPARγ/ROS/β-catenin pathway” (Eur J Med Chem, 2023).
Active and inactive are the calls of the source. No cut-off for these calls is given here.

Key:
[1] = Drug uptake in mouse B16-F10 cells implanted in C57BL/6J mouse assessed as fluorescence aggregation in tumor at 3 mg/kg, iv measured after 3 to 6 hrs; format: ADME, organism-based; conditions: in vivo, time 3-6 hrs
B16-F10 [2] = experiment: Induction of mitochondrial damage in mouse B16-F10 cells assessed as mitochondrial vacuolation at 2.5 uM incubated for 24 hrs by TEM analysis; format: functional, cell-based
B16-F10 [3] = experiment: Induction of mitochondrial damage in mouse B16-F10 cells assessed as increase in ROS production at 2.5 uM after 5 to 60 mins by DCFH-DA staining based flow cytometry analysis; format: functional, cell-based; conditions: time 5-60 min
A-375 [4] = experiment: Induction of ROS generation in human A-375 cells assessed as reduction in SOD2 expression level at 0.31 to 1.25 uM incubated for 24 hrs; format: functional, cell-based; conditions: dose 0.31-1.25 µM
B16-F10 [5] = experiment: Induction of ROS generation in mouse B16-F10 cells assessed as reduction in SOD2 expression level at 0.31 to 1.25 uM incubated for 24 hrs; format: functional, cell-based; conditions: dose 0.31-1.25 µM
B16-F10 [6] = experiment: Induction of ROS generation in mouse B16-F10 cells assessed as reduction in GPX1 expression level at 0.31 to 1.25 uM incubated for 24 hrs; format: functional, cell-based; conditions: dose 0.31-1.25 µM
[7] = Cytotoxicity against human A-375 cells assessed as cell viability at 40 uM incubated for 24 hrs by MTT assay; format: toxicity, cell-based; conditions: read-out: Activity
A-375 [8] = experiment: Inhibition of ROS generation in human A-375 cells preincubated with rosiglitazone for 2 hrs followed by wash out and compound addition for 1 hr by DCFH-DA staining based inverted fluorescence microscopic analysis; format: functional, cell-based
B16-F10 [9] = experiment: Inhibition of ROS generation in mouse B16-F10 cells preincubated with rosiglitazone for 2 hrs followed by wash out and compound addition for 1 hr by DCFH-DA staining based inverted fluorescence microscopic analysis; format: functional, cell-based
A-375 [10] = experiment: Inhibition of ROS generation in human A-375 cells at 1.25 uM preincubated with rosiglitazone for 2 hrs followed by wash out and compound addition for 1 hr by DCFH-DA staining based inverted fluorescence microscopic analysis; format: functional; parameters: scale not given: the % may be the effect or the level left
B16-F10 [11] = experiment: Inhibition of ROS generation in mouse B16-F10 cells at 1.25 uM preincubated with rosiglitazone for 2 hrs followed by wash out and compound addition for 1 hr by DCFH-DA staining based inverted fluorescence microscopic analysis; format: functional; parameters: scale not given: the % may be the effect or the level left
B16-F10 [12] = experiment: Induction of ROS generation in mouse B16-F10 cells assessed as reduction in SOD2 expression level at 1.25 uM preincubated with rosiglitazone for 24 hrs followed by compound addition for 24 hrs; format: functional, cell-based
A-375 [13] = experiment: Antiproliferative activity against human A-375 cells assessed as inhibition of cell growth at 0.31 uM after 72 hrs by MTT assay; format: functional; parameters: scale not given: the % may be the effect or the level left
A549 = experiment: Antiproliferative activity against human A549 cells assessed as inhibition of cell growth at 0.31 uM after 72 hrs by MTT assay; format: functional; parameters: scale not given: the % may be the effect or the level left
B16-F10 [14] = experiment: Antiproliferative activity against mouse B16-F10 cells assessed as inhibition of cell growth at 0.31 uM after 72 hrs by MTT assay; format: functional; parameters: scale not given: the % may be the effect or the level left
A-375 [15] = experiment: Antiproliferative activity against human A-375 cells assessed as inhibition of cell growth at 0.04 to 10 uM by MTT assay; format: functional, cell-based; conditions: dose 0.04-10 µM, time 24-72 hrs, TDE = time-dependent effect
B16-F10 [16] = experiment: Antiproliferative activity against mouse B16-F10 cells assessed as inhibition of cell growth at 0.04 to 10 uM by MTT assay; format: functional, cell-based; conditions: dose 0.04-10 µM, time 24-72 hrs, TDE = time-dependent effect
A-375 [17] = experiment: Inhibition of tumor metastasis in human A-375 cells assessed as reduction in wound healing after 24 hrs; format: functional, cell-based; conditions: dose 0.08-1.25 µM
B16-F10 [18] = experiment: Inhibition of tumor metastasis in mouse B16-F10 cells assessed as reduction in wound healing after 24 hrs; format: functional, cell-based; conditions: dose 0.08-1.25 µM
A-375 [19] = experiment: Inhibition of cell migration in human A-375 cells after 24 hrs by transwell assay; format: functional, cell-based; conditions: dose 0.31-1.25 µM
A-375 [20] = experiment: Inhibition of Wnt/beta-catenin signaling in human A-375 cells assessed as reduction in TCF4 expression at 1.25 uM incubated for 24 hrs; format: cell-based
A-375 [21] = experiment: Inhibition of Wnt/beta-catenin signaling in human A-375 cells assessed as reduction in beta-catenin expression at 1.25 uM preincubated with rosiglitazone for 24 hrs followed by compound addition and measured after 24 hrs in presence of H2O2; format: cell-based
B16-F10 [22] = experiment: Inhibition of Wnt/beta-catenin signaling in mouse B16-F10 cells assessed as reduction in TCF4 expression at 1.25 uM preincubated with rosiglitazone for 24 hrs followed by compound addition and measured after 24 hrs in presence of H2O2; format: cell-based
A-375 [23] = experiment: Induction of cell cycle arrest in human A-375 cells assessed as reduction in Cdk2 protein level at 0.31 to 1.25 uM after 24 hrs by Western blotting analysis; format: functional, cell-based; conditions: dose 0.31-1.25 µM
A-375 [24] = experiment: Induction of cell cycle arrest in human A-375 cells assessed as reduction in Cdk4 protein level at 0.31 to 1.25 uM after 24 hrs by Western blotting analysis; format: functional, cell-based; conditions: dose 0.31-1.25 µM
A-375 [25] = experiment: Induction of cell cycle arrest in human A-375 cells assessed as P21 protein accumulation at 0.31 to 1.25 uM after 24 hrs by Western blotting analysis; format: functional, cell-based; conditions: dose 0.31-1.25 µM
B16-F10 [26] = experiment: Induction of cell cycle arrest in mouse B16-F10 cells assessed as reduction in Cdk2 protein level at 0.31 to 1.25 uM after 24 hrs by Western blotting analysis; format: functional, cell-based; conditions: dose 0.31-1.25 µM
B16-F10 [27] = experiment: Induction of cell cycle arrest in mouse B16-F10 cells assessed as P21 protein accumulation at 0.31 to 1.25 uM after 24 hrs by Western blotting analysis; format: functional, cell-based; conditions: dose 0.31-1.25 µM
B16-F10 [28] = experiment: Induction of cell cycle arrest in mouse B16-F10 cells assessed as P27 protein accumulation at 0.31 to 1.25 uM after 24 hrs by Western blotting analysis; format: functional, cell-based; conditions: dose 0.31-1.25 µM
B16-F10 [29] = experiment: Inhibition of cell metastasis in mouse B16-F10 cells assessed as reduction in MMP2 protein level at 0.31 to 1.25 uM after 24 hrs by Western blotting analysis; format: functional, cell-based; conditions: dose 0.31-1.25 µM
B16-F10 [30] = experiment: Inhibition of cell metastasis in mouse B16-F10 cells assessed as reduction in MMP9 protein level at 0.31 to 1.25 uM after 24 hrs by Western blotting analysis; format: functional, cell-based; conditions: dose 0.31-1.25 µM
A-375 [31] = experiment: Antitumor activity against human GFP-stained A-375 cells inoculated in zebrafish assessed as reduction in tumor growth by measuring tumor fluorescence intensity; format: functional, cell-based
B16-F10 [32] = experiment: Antitumor activity against mouse B16-F10 cells inoculated in C57BL/6J mouse assessed as reduction in tumor weight at 0.5 to 2 mg/kg, ip administered every other day and measured on day 22; format: functional, organism-based; conditions: dose 0.5-2 mg/kg, time 22.0 day
[33] = Toxicity in C57BL/6J mouse inoculated with mouse B16-F10 cells assessed as effect on kidney morphology at 2 mg/kg, ip administered every other day for 22 days by H and E staining based assay; format: organism-based; conditions: in vivo, 528 h, time 22 day
[34] = Renal toxicity in C57BL/6J mouse inoculated with mouse B16-F10 cells assessed as change in CREA level at 2 mg/kg, ip administered every other day for 22 days; format: organism-based; conditions: in vivo, 528 h, time 22 day
B16-F10 [35] = experiment: Antitumor activity against mouse B16-F10 cells inoculated in C57BL/6J mouse assessed as reduction in PPARgamma expression at 0.5 to 2 mg/kg, ip administered every other day and measured on day 22 by immunohistochemistry analysis; format: functional, organism-based; conditions: dose 0.5-2 mg/kg, time 22.0 day

## CC[N+]1=C(/C=C/C2=C(Cl)C(=C/C=C3\N(CCCCCC(=O)O/C(=N/C4CCCCC4)NC4CCCCC4)c4ccccc4C3(C)C)/CCC2)C(C)(C)c2ccccc21.[Br-]
[1]
  Drug uptake: Active
B16-F10 [2]
  Activity: Active
B16-F10 [3]
  Activity: Active
A-375 [4]
  Activity: Active
B16-F10 [5]
  Activity: Active
B16-F10 [6]
  Activity: Active
[7]
  viability at 24 h, 40 µM: 90%
A-375 [8]
  Activity: Dose-Dependent Effect
B16-F10 [9]
  Activity: Dose-Dependent Effect
A-375 [10]
  Activity: >50%
B16-F10 [11]
  Activity: >50%
B16-F10 [12]
  Activity: inactive
A-375 [13]
  Activity: 70%
A549
  Activity: 70%
B16-F10 [14]
  Activity: 70%
A-375 [15]
  Activity: Tde
B16-F10 [16]
  Activity: Tde
A-375 [17]
  inhibition: Dose-Dependent Effect
B16-F10 [18]
  inhibition: Dose-Dependent Effect
A-375 [19]
  inhibition: Dose-Dependent Effect
A-375 [20]
  inhibition: Active
A-375 [21]
  inhibition: inactive
B16-F10 [22]
  Activity: inactive
A-375 [23]
  Activity: Active
A-375 [24]
  Activity: Active
A-375 [25]
  Activity: Active
B16-F10 [26]
  Activity: Active
B16-F10 [27]
  Activity: Active
B16-F10 [28]
  Activity: Active
B16-F10 [29]
  inhibition: Active
B16-F10 [30]
  inhibition: Active
A-375 [31]
  Activity: Active
B16-F10 [32]
  Activity: Active
[33]
  Activity: Non-Toxic
[34]
  Activity: Non-Toxic
B16-F10 [35]
  Activity: Active
